These results are taken from ChEMBL document CHEMBL3400074, “Development of 2-amino-5-phenylthiophene-3-carboxamide derivatives as novel inhibitors of Mycobacterium tuberculosis DNA GyrB domain” (Bioorg Med Chem, 2015).

Each structure is given as a SMILES string.

Data set [1] can be described thus: Cytotoxicity against mouse RAW264.7 cells at 100 uM after 48 hrs by MTT assay. Type of data set: cell-based. The note with it: read-out: INH.
In the next data set the target is DNA gyrase subunit B (Mycobacterium smegmatis, UniProt P0C559). The experiment in a line: Inhibition of Mycobacterium smegmatis DNA GyrB domain assessed as inhibition of inorganic phosphate release after 100 mins at room temperature by ATPase assay. Further details: species or system Mycolicibacterium smegmatis.
DNA gyrase subunit B, sequence (P0C559 whole entry, the tested form may be a part): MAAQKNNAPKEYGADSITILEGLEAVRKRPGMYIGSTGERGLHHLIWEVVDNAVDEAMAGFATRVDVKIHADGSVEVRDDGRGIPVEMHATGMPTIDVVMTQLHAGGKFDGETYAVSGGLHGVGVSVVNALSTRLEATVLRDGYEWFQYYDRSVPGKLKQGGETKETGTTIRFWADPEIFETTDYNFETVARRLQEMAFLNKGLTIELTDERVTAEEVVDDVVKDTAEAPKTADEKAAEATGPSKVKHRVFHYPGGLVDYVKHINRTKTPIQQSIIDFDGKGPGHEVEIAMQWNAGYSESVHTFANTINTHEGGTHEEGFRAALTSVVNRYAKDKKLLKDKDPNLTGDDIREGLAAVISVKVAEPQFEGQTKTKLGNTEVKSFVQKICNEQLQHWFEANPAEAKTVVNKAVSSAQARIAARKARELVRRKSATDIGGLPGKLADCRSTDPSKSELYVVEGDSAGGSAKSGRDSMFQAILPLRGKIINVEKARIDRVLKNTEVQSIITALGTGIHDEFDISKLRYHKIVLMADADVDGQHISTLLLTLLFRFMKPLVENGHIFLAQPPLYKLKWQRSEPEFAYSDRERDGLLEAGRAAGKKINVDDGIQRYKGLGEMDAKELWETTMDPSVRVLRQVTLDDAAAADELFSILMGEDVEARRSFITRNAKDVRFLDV
Data set [2] is described as follows: Inhibition of Mycobacterium tuberculosis DNA GyrA/B heterotetramer assessed as inhibition of pBR322 supercoiling after 30 mins by gel electrophoresis.
Data set [3] concerns the target DNA gyrase subunit B (Mycobacterium smegmatis) (UniProt P0C559). The data set can be described thus: Binding affinity to Mycobacterium smegmatis DNA GyrB domain assessed as change in melting temperature by differential scanning fluorimetry. The settings on record: Mycolicibacterium smegmatis.

DNA gyrase subunit B (Mycobacterium smegmatis), sequence (P0C559 2-675 limits assumed): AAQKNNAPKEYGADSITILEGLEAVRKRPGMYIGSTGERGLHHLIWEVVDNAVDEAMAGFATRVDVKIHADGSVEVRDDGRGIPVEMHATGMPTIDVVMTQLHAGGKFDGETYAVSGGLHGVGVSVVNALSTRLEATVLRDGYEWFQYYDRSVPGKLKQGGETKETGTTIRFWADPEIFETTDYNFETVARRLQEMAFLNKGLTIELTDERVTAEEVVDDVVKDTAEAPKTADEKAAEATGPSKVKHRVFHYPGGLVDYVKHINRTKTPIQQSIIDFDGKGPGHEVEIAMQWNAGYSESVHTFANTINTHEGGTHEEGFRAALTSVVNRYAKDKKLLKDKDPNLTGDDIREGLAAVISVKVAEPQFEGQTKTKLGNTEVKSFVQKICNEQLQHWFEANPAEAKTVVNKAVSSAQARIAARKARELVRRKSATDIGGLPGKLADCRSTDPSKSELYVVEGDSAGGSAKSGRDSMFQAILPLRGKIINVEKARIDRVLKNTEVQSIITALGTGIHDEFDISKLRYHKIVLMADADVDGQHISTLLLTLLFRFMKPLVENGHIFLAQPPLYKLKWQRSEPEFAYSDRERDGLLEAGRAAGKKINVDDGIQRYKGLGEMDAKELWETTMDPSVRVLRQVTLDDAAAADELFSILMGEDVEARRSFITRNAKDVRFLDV

Consider `NC(=O)c1cc(-c2ccccc2)sc1NC(=O)NCc1ccccc1`, for which the cytotoxicity at 48 h, 100 µM in data set [1] came out at 33%. Moreover, the results for the IC50 (at DNA gyrase subunit B; in data set [2]) were 10.8 µM and 8.89 µM, respectively.
Taken in the same sequence, the figures for `NC(=O)c1cc(-c2ccccc2)sc1NC(=O)c1cc2ccccc2[nH]1` were 36.2%, 22 µM and 18.2 µM.
The matching figures for `NC(=O)c1cc(-c2ccccc2)sc1NC(=S)Nc1ccc(Br)cc1`: 35.6%, 10.9 µM and 9.63 µM.
In the case of `Cc1ccc(NC(=O)Nc2sc(-c3ccccc3)cc2C(N)=O)cc1`, the cytotoxicity at 48 h, 100 µM in data set [1] came to 37.6%. In addition, the 50% inhibitory concentration (IC50) (in general, the concentration needed to halve the response being measured) on DNA gyrase subunit B was 24 µM; in data set [2] it was greater than 25 µM.
For the molecule `CC(C)NC(=O)Nc1sc(-c2ccccc2)cc1C(N)=O`, in data set [1], the cytotoxicity at 48 h, 100 µM came out at 36.1%. Besides, the results for the half-maximal inhibitory concentration (IC50) (on DNA gyrase subunit B; in data set [2]) were 6.47 µM and 6.17 µM, respectively.
Take `CC(=O)Nc1sc(-c2ccccc2)cc1C(N)=O`: the cytotoxicity at 48 h, 100 µM in data set [1] was determined as 37.5%. Further, the IC50 on DNA gyrase subunit B came to 19.1 µM; in data set [2], 11.8 µM.
For the molecule `NC(=O)c1cc(-c2ccccc2)sc1NC(=O)c1cnccn1`, the cytotoxicity at 48 h, 100 µM in data set [1] was 34.3%. Moreover, the results for the IC50 (on DNA gyrase subunit B; in data set [2]) were 18.4 µM and greater than 25 µM, respectively.
Take `NC(=O)c1cc(-c2ccccc2)sc1NC(=S)Nc1ccc(F)cc1`: in data set [1], the cytotoxicity at 48 h, 100 µM stood at 32.1%. Moreover, the half-maximal inhibitory concentration (IC50) was 48.9 µM on DNA gyrase subunit B and greater than 25 µM in data set [2].
The matching figures for `NC(=O)c1cc(-c2ccccc2)sc1NC(=O)Nc1ccc(Br)cc1`: 37.6%, 12.2 µM and greater than 25 µM.
The matching figures for `NC(=O)c1cc(-c2ccccc2)sc1NC(=O)c1ccc(Oc2ccccc2)cc1`: 35.8%, 17.3 µM and 8.85 µM.
Regarding `NC(=O)c1cc(-c2ccccc2)sc1NC(=O)C1CCCCC1`, in data set [1], the cytotoxicity at 48 h, 100 µM turned out to be 39%. Besides, the results for the concentration for half-maximal inhibition (IC50) (at DNA gyrase subunit B; in data set [2]) were 10.2 µM and 9.83 µM, respectively.
As to `Cc1ccc(NC(=S)Nc2sc(-c3ccccc3)cc2C(N)=O)cc1`, in data set [1], the cytotoxicity at 48 h, 100 µM is 34.8%. The values for the IC50 (on DNA gyrase subunit B; in data set [2]) were 2.46 µM and 2.97 µM, respectively.
As to `CCCC(=O)Nc1sc(-c2ccccc2)cc1C(N)=O`, in data set [1], the cytotoxicity at 48 h, 100 µM stood at 39.8%. Further, the 50% inhibitory concentration (IC50) on DNA gyrase subunit B was determined as 3.57 µM; in data set [2], 3.14 µM.
With `NC(=O)c1cc(-c2ccccc2)sc1NC(=S)NCc1ccccc1`, in data set [1], the cytotoxicity at 48 h, 100 µM was 36.1%. The IC50 at DNA gyrase subunit B was found to be 28.3 µM; in data set [2] it was 17.8 µM.
As to `CC(C)NC(=S)Nc1sc(-c2ccccc2)cc1C(N)=O`, in data set [1], the cytotoxicity at 48 h, 100 µM worked out at 35.5%. Further, the half-maximal inhibitory concentration (IC50) was determined as 16.2 µM at DNA gyrase subunit B and 9.25 µM in data set [2].
Take `NC(=O)c1cc(-c2ccccc2)sc1NC(=O)Nc1ccccc1`: the cytotoxicity at 48 h, 100 µM in data set [1] amounted to 37.3%. For the same molecule, the figures for the half-inhibitory concentration (IC50) (on DNA gyrase subunit B; in data set [2]) were 1.83 µM and 1.32 µM, respectively.
Take `NC(=O)c1cc(-c2ccccc2)sc1NC(=O)c1cccs1`: the figures for the IC50 (on DNA gyrase subunit B; in data set [2]) were 1.5 µM and 1.16 µM, respectively.
For `NC(=O)c1cc(-c2ccccc2)sc1NC(=O)C1CCCC1`, the cytotoxicity at 48 h, 100 µM in data set [1] was determined as 39.7%. Further, the figures for the 50% inhibitory concentration (IC50) (at DNA gyrase subunit B; in data set [2]) were 42.2 µM and greater than 25 µM, respectively.
The matching figures for `CCC(=O)Nc1sc(-c2ccccc2)cc1C(N)=O`: 39.4%, 11.8 µM and 5.62 µM.
The matching figures for `NC(=O)c1cc(-c2ccccc2)sc1NC(=O)Nc1ccc(F)cc1`: 33.7%, 11.5 µM and 9.88 µM.
With `CO[C@@H]1[C@@H](OC(N)=O)[C@@H](O)[C@H](Oc2ccc3c(O)c(NC(=O)c4ccc(O)c(CC=C(C)C)c4)c(=O)oc3c2C)OC1(C)C` [NOVOBIOCIN], in data set [1], the cytotoxicity at 48 h, 100 µM is 81.7%.
As for `NC(=O)c1cc(-c2ccccc2)sc1NC(=O)c1ccc([N+](=O)[O-])cc1`, the cytotoxicity at 48 h, 100 µM in data set [1] worked out at 35.9%. The values for the half-maximal inhibitory concentration (IC50) (on DNA gyrase subunit B; in data set [2]) were 8.91 µM and 6.77 µM, respectively.
With `NC(=O)c1cc(-c2ccccc2)sc1NC(=O)c1ccc(Cl)cc1`, in data set [1], the cytotoxicity at 48 h, 100 µM worked out at 38.5%. Moreover, the IC50 stood at 6.69 µM at DNA gyrase subunit B and 5.82 µM in data set [2].
For the molecule `NC(=O)c1cc(-c2ccccc2)sc1NC(=O)Nc1ccc([N+](=O)[O-])cc1`, the cytotoxicity at 48 h, 100 µM in data set [1] amounted to 37.3%. Moreover, the results for the half-maximal inhibitory concentration (IC50) (at DNA gyrase subunit B; in data set [2]) were 12.8 µM and 10.9 µM, respectively.
Taken in the same sequence, the figures for `NC(=O)c1cc(-c2ccccc2)sc1NC(=O)Nc1ccc(Cl)cc1` were 38.2%, 3.14 µM and 2.97 µM.
`NC(=O)c1cc(-c2ccccc2)sc1NC(=S)Nc1ccccc1`: the cytotoxicity at 48 h, 100 µM in data set [1] stood at 32.8%. Also, the IC50 on DNA gyrase subunit B is 70.3 µM; in data set [2] it was greater than 25 µM.
The matching figures for `NC(=O)c1cc(-c2ccccc2)sc1NC(=S)Nc1ccc([N+](=O)[O-])cc1`: 40.3%, 32.5 µM and greater than 25 µM.
In the case of `NC(=O)c1cc(-c2ccccc2)sc1NC(=S)Nc1ccc(Cl)cc1`, the cytotoxicity at 48 h, 100 µM in data set [1] is 36.1%. The values for the concentration for half-maximal inhibition (IC50) (on DNA gyrase subunit B; in data set [2]) were 71.4 µM and greater than 25 µM, respectively.
`NC(=O)c1cc(-c2ccccc2)sc1NC(=O)c1ccccc1`: in data set [3], the ΔTm – broadly, the change in melting temperature against a reference sample – came to 2.5 °C. For the same molecule, the cytotoxicity at 48 h, 100 µM in data set [1] stood at 37.6%. The figures for the IC50 (on DNA gyrase subunit B; in data set [2]) were 0.86 µM and 0.76 µM, respectively.
For `NC(=O)c1cc(-c2ccccc2)sc1NC(=O)c1cccc2ccccc12`, in data set [1], the cytotoxicity at 48 h, 100 µM was 36.8%. Also, the IC50 was 28.6 µM on DNA gyrase subunit B and greater than 25 µM in data set [2].
